# Results taken from patent publication US20150125457A1, “BONE REPAIR PROMOTER” (DAIICHI SANKYO COMPANY, LIMITED, priority 2012, published 2015).
# Bridges are numbered along the chain shown (N, C = ends). Where no end group is shown, it is not given here.
# How the values were obtained:
# NPR-B = molecular target: T1, NPR-B (Homo sapiens, UniProt P20594); conditions: literature reports (Furuya et al. 1992; US 2010-305031); cited from earlier work
# T1 sequence (P20594 23-1047): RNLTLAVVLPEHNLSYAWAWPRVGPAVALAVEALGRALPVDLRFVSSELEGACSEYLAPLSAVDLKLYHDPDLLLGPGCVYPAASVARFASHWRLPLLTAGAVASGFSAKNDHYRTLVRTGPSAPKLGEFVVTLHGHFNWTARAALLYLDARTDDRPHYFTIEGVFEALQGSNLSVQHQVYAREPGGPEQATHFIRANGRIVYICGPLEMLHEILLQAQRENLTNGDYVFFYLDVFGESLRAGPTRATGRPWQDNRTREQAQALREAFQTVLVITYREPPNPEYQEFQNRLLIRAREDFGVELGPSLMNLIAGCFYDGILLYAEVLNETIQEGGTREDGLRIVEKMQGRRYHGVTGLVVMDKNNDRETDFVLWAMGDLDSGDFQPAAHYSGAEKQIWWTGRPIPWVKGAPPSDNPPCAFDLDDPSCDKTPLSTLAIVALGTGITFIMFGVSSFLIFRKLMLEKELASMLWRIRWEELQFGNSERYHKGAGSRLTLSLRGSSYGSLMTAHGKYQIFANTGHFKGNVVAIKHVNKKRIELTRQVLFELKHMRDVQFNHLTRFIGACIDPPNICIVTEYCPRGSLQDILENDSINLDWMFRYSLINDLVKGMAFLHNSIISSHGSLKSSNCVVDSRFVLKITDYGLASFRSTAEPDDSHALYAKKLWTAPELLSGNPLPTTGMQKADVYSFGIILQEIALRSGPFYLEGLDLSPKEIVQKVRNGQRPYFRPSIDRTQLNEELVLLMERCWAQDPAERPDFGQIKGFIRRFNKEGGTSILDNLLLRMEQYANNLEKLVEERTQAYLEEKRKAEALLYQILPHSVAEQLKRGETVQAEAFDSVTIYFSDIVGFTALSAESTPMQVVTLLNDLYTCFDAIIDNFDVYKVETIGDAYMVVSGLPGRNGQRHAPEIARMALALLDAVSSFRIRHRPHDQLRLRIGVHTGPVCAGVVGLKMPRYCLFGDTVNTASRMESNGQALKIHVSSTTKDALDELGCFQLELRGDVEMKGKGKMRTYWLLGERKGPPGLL
# [1] = test system: rat closed femur fracture model; assay: Rat closed femur fracture model, callus diameter; type: in vivo; conditions: 0.5 mg/kg/day continuous s.c. for one week; 7 days after fracture; versus vehicle group; FIG. 5B
# Description: (§1) In accordance with the method of Example 2, a rat closed fracture model was prepared. An administration solution was prepared so as to be a dosage corresponding to 0.5 mg/kg/day by using various NPR-B agonists (CNP derivative A, hCNP-53 (SEQ ID NO: 2), CNP derivative C (CNP-36, amino acid Nos. 18 to 53 of SEQ ID NO: 2), and CNP derivative D (Pro-Gly-CNP37, SEQ ID NO: 15)), and then loaded into an osmotic pump (Model 2001, Alzet). The osmotic pump was buried under the skin of the neck back of the animal retained in a supine position, and continuous subcutaneous administration was performed for one week. Vehicle was administered to the control group. 7 days after the preparation of the bone fracture, the animal was subjected to isoflurane inhalation anesthesia, retained in a supine position to open the abdomen, and then subjected to blood collection from the abdominal aorta. EDTA Na was added to the blood, then the EDTA Na-added blood was centrifuged and the plasma separated, and the resultant was cryopreserved. At a later date, the cGMP level in the plasma was measured by a RIA method using a kit (YSI-7702, YAMASA CORPORATION). After blood collection, the animal was bled for the euthanasia, and then the left femur was resected. Each maximum diameter of the sagittal plane and the coronal plane in the callus was measured, and the average value was used as a callus diameter. In accordance with the method of Example 3, the type X collagen gene expression level in the callus was measured. The measurement was performed for 12 cases in each group.
# type X collagen gene = assay: Rat closed femur fracture model, cartilage-related marker gene expression (real-time PCR); type: in vivo; conditions: Example 4: 0.5 mg/kg/day continuous s.c. for one week; 7 days after fracture; versus vehicle group; FIG. 5C
# Description: In accordance with the method of Example 2, a rat closed fracture model was prepared. For an animal in a Sham group, a pin only was inserted into the femur, and a bone fracture was not prepared. An administration solution of CNP derivative A was prepared so as to be a dosage corresponding to 0.5 mg/kg/day, and then loaded into an osmotic pump (model 2001, Alzet). The osmotic pump was buried under the skin of the neck back of the animal, and continuous subcutaneous administration was performed for one week. Vehicle was continuously subcutaneously administered to the control group. 7 days after the preparation of the bone fracture, the animal was subjected to isoflurane inhalation anesthesia, retained in a supine position to open the abdomen, and then bled for the euthanasia. The left femur was resected, and immersed into RNAlater (Life Technologies Corporation). The diaphysis or part of the callus was cut out from the femur that had been refrigerated in RNAlater for one day or more. To the cut-out diaphysis or part of the callus, QIAzol (QIAGEN) was added, and the resultant was crushed with tungsten beads. The total RNA was extracted by an RNeasy Mini Kit (QIAGEN), and 1st strand cDNA was synthesized by a SuperScript VILO cDNA Synthesis Kit (Life Technologies Corporation). The gene expression level was measured by a real-time PCR method using TaqMan Gene Expression Master Mix (Life Technologies Corporation). The measured value was standardized by the gene expression level of ubiquitin-C. The standardization was performed for 12 cases in each group.
# as §1
Substance,NPR-B agonist activity compared with hCNP-22 (in words) (NPR-B),Maximum diameter of the callus generated in the left femur [1],Gene expression level of type X collagen in the callus (type X collagen gene)
"CNP6-22: peptide consisting of only the ring structure, amino acid Nos. 6 to 22 of SEQ ID NO: 1 (CFGLKLDRIGSMSGLGC; disulfide 1-17 (inferred))",almost the same NPR-B agonist activity as that of hCNP-22,,
"CNP derivative C: hCNP-36, 17 consecutive amino acids from the N terminus of hCNP-53 deleted; amino acid Nos. 18 to 53 of SEQ ID NO: 2 (EHPNARKYKGANKKGLSKGCFGLKLDRIGSMSGLGC; mammalian)",,significantly larger,significantly suppressed
"CNP derivative D: Pro-Gly-CNP37, SEQ ID NO: 15; derivative described in WO 2009/067639 (PGQEHPNARKYKGANKKGLSKGCFGLKLDRIGSMSGLGC; CNP derivative D, which disclosed in Am. J. Hum. Gent.(2012), 91(6), 1108-1114)",,significantly larger,significantly suppressed
"hCNP-53: human-derived CNP-53, DLRVDTKSRAAWARLLQEHPNARKYKGANKKGLSKGCFGLKLDRIGSMSGLGC: SEQ ID NO: 2 (DLRVDTKSRAAWARLLQEHPNARKYKGANKKGLSKGCFGLKLDRIGSMSGLGC; mammalian) [reference compound]",,significantly larger,suppressed
